Measured values: the NIST ThermoML archive (doi:10.1016/j.jct.2015.12.029)

Test: mn = molality of the nth substance listed, in mol/kg
Settings: 100 kPa, Liquid; for molar conductivity: Alternating current cell with electrodes; for mass density: Vibrating tube method, m1 = 0.009397

CCn1cc[n+](C)c1.F[B-](F)(F)F [1-ethyl-3-methylimidazolium tetrafluoroborate] + CCCCO
molar conductivity [S·m2/mol]
Settings	283.15 K	288.15 K	293.15 K	298.15 K	303.15 K	308.15 K	313.15 K	318.15 K
m1 = 3.974e-05	0.00127	0.00144	0.00165	0.00188	0.00213	0.002402	0.00268	0.003
m1 = 6.936e-05	0.001204	0.00138	0.00158	0.0018	0.00203	0.00228	0.00255	0.00284
m1 = 0.0001047	0.00115	0.00132	0.001505	0.00172	0.00193	0.00217	0.00242	0.00269
m1 = 0.0001865	0.00106	0.00121	0.00138	0.00157	0.00177	0.00198	0.0022	0.00244
m1 = 0.0002945	0.000977	0.00111	0.00127	0.00144	0.00162	0.00181	0.00201	0.00222
m1 = 0.0004005	0.000913	0.00104	0.00119	0.00134	0.00151	0.00169	0.00187	0.00206
m1 = 0.000688	0.000802	0.000915	0.00104	0.00117	0.00131	0.00146	0.00162	0.00178
m1 = 0.0009724	0.000729	0.00083	0.000943	0.00106	0.00119	0.00133	0.00147	0.00161
m1 = 0.001464	0.000642	0.000733	0.000833	0.000942	0.00106	0.00117	0.00129	0.00142
m1 = 0.001942	0.000597	0.000668	0.000762	0.000859	0.000961	0.00107	0.00118	0.00129
m1 = 0.002839	0.000519	0.000592	0.000671	0.000759	0.000848	0.000941	0.00103	0.00114

Settings	mass density [kg/m3]
283.15 K	817.716
288.15 K	813.954
293.15 K	810.164
298.15 K	806.357
303.15 K	802.519
308.15 K	798.653
313.15 K	794.75
318.15 K	790.804
